From patent US12528809B2, “Crystalline forms of gepotidacin” (GLAXOSMITHKLINE INTELLECTUAL PROPERTY DEVELOPMENT LIMITED, priority 2020, dated 2026)

What was measured:
[1] = Physical form stability / conversion to Form 1; assay type: physicochemical
Description: The suspension was heated with a heat gun to dissolve most of the solids, and then left to slowly cool to room temperature. The resultant crystals were filtered and analysed by DSC, TGA, and XRPD.
Amorphous gepotidacin mesylate can be generated via lyophilization. Form 1 (150 mg) was dissolved MeCN/water (80/20 v/v; 1 mL). A clarifying filtration was performed and the filtrate was added to a 20 mL vial. The solution was frozen under liquid nitrogen and lyophilized for 4 hours.

[2] = Moisture sorption/desorption isotherms (DVS); details: first sorption cycle
Description: The moisture sorption/desorption isotherms of gepotidacin mesylate dihydrate and gepotidacin HCl were obtained over a range of 5-90% relative humidity.

physical form stability ([1]; ambient conditions, listed as Gepotidacin Mesylate Anhydrate (Form 2)) | critical RH step [2] | uptake of water ([2]; critical step at 60% RH, indicates conversion to Form 1) | Compound | physical form stability ([1]; amorphous by lyophilization from MeCN/water (80/20 v/v)) | physical form stability ([1]; amorphous by lyophilization of an aq. t-BuOH solution, ambient conditions) | physical form stability ([1]; ambient conditions)
 |  |  | CS(=O)(=O)O.O.O.O=c1ccc2ncc(=O)n3c2n1C[C@H]3CN1CCC(NCc2cc3c(cn2)OCCC3)CC1 [Amorphous gepotidacin mesylate] | started to convert to Form 1 unless stored in a sealed vial with desiccant | physically stable for at least three days | 
unstable under ambient conditions | 60 % RH | 4.8% | CS(=O)(=O)O.O.O.O=c1ccc2ncc(=O)n3c2n1C[C@H]3CN1CCC(NCc2cc3c(cn2)OCCC3)CC1 [Gepotidacin mesylate anhydrate (Form 2)] |  |  | convert to Gepotidacin mesylate dihydrate (Form 1) after one hour
